Data taken from a melting point compilation (Tetko et al.).

Row | melting point [°C] | SMILES
1 | 173 to 175 | O=C(O)Cc1ccc(NC(=O)C2CCCC2)cc1
2 | 147 to 149 | CC(=O)c1ccc(NC(=O)NC(C)C)cc1
3 | 79 to 81 | CCOC(=O)c1ccc2c(c1)CCCN2
4 | 123 to 125 | Nc1c(C(=O)N2CCOCC2)oc2ccccc12
5 | 62 to 64 | CC(N)c1ccc(N2CCCC2=O)cc1 (stereo not drawn)
6 | 191 to 193 | NC(=NO)c1ccc(N2CCN(c3ccc(F)cc3)CC2)nc1
7 | 199 to 201 | CC(C)(C)Nc1cc(C(=O)O)c(N)cc1F
8 | 150 to 152 | CCCS(=O)(=O)Nc1ccccc1C(=O)O
9 | 146 to 148 | Cc1[nH]c(=O)sc1C
10 | 49 to 51 | CC(C)(Cc1ccccc1)C(=O)O
11 | 134 to 136 | CCOC(=O)C(O)c1nccn1Cc1ccccc1 (stereo not drawn)
12 | 143 to 145 | O=C(O)CCc1nc(-c2ccoc2)no1
13 | 62 to 64 | Nc1ccc(Oc2cc(Cl)ccc2Cl)c(F)c1
14 | 134 to 136 | Sc1nnc(-c2ccco2)n1C1CCCCC1
15 | 222 to 224 | COc1ccc(/C=C/C(=O)O)cc1F
16 | 197 to 199 | NC(=S)c1cncnc1N
17 | 66 to 68 | Nc1cnccc1-c1cccc(F)c1
18 | 170 to 172 | CN(CC(=O)O)c1ccc(C#N)cn1
19 | 104 to 106 | CN1C(=O)Cc2cc(S)ccc21
20 | 136 to 138 | Nc1cc(Cc2ccccc2)ccc1O
21 | 114 to 116 | O=C(O)CCCCOc1ccc2oc3ccccc3c2c1
22 | 106 to 108 | CCc1ccccc1NC(=O)CCl
23 | 98 to 100 | CCOc1ccc(S(=O)(=O)Cl)c2ccccc12
24 | 88 to 90 | CCS(=O)(=O)Nc1ccc(N)cc1

Row | melting point [°C] | SMILES
25 | 169 to 171 | Cc1c(C(=O)O)c(=O)oc2cc(F)ccc12
26 | 162 to 164 | Nc1ccc(S(=O)(=O)Nc2ccc(F)cc2F)cc1
27 | 289 to 291 | Cn1c(=O)n(C)c2cc(C(=O)O)c(Br)cc21
28 | 188 to 192 | O=C(O)c1cc(N2CCOCC2)ccc1[N+](=O)[O-]
29 | 119 to 121 | CCCCn1nc(C(=O)O)ccc1=O
30 | 73 to 75 | CCc1c(Cl)nc(-c2ccccc2)nc1Cl
31 | 251 to 253 | NC(C(=O)O)c1ccc2ccccc2c1 (stereo not drawn)
32 | 249 to 251 | Cc1cc(C(=O)O)c(N)c([N+](=O)[O-])c1
33 | 220 to 222 | O=C(O)c1ccc(N2CCOCC2)c(F)c1
34 | 189 to 191 | Cc1cc(C(=O)O)n2nc(C)cc2n1
35 | 177 to 179 | O=C(O)c1nccnc1C(=O)Nc1ccc(F)cc1
36 | 139 to 141 | CC(C)(C)OC(=O)Nc1snnc1C(=O)O
37 | 249 to 251 | Nc1cccc(-c2nccn2CC(=O)O)c1
38 | 216 to 218 | O=C(O)Cn1nnc(-c2ccco2)n1
39 | 147 to 149 | O=Cc1cnc(N2CCOCC2)nc1
40 | 81 to 83 | COCCCOc1cccc(C(=O)O)c1
41 | 78 to 82 | O=C(NCc1ccccc1)c1ccccc1O
42 | 133 to 135 | O=C(CCl)NCC(=O)c1cccs1
43 | 141 to 143 | CCOC(=O)CC(=O)c1[nH]c(C)c(C(=O)OCC)c1C
44 | 153 to 155 | NNc1nccnc1Cl
45 | 153 to 155 | Nc1cccc(C(=O)Nc2ccc(Br)cn2)c1
46 | 251 to 253 | O=c1ccc(-n2ccnc2)n[nH]1
47 | 71 to 73 | Clc1cc2c(cc1Cl)OCO2
48 | 117 to 119 | O=Cc1sc(N2CCCCC2)nc1-c1cccs1

Row | melting point [°C] | SMILES
49 | 192 to 194 | Cc1csc(-c2cccc(C(=O)O)c2)n1
50 | 225 to 227 | COC(=O)c1ccc2n[nH]c(=O)n2c1
51 | 209 to 211 | O=c1cc2c(n[nH]1)CCC2
52 | 102 to 104 | O=C(CCl)N(Cc1nnc(-c2ccc(Cl)cc2)o1)C1CC1
53 | 92 to 94 | NCc1ccnc(N)c1
54 | 209 to 211 | O=C(O)c1nn(-c2ccc(F)cc2)c2c1CCCC2
55 | 119 to 121 | COc1ccc(S(=O)(=O)NC(C)(C)C)cc1N
56 | 52 to 54 | Brc1ccc2c(c1)CCCCN2
57 | 68 to 70 | N#Cc1cc2ccccn2c1
58 | 302 to 304 | Cc1nc2cc(O)nn2c(C)c1CCC(=O)O
59 | 192 to 194 | CC(Sc1ncccc1C(=O)O)C(=O)N1CCCC1 (stereo not drawn)
60 | 33 to 35 | CCCC(C)=CC(=O)O
61 | 197 to 199 | NC(=S)c1ncccn1
62 | 100 to 102 | O=C(CCl)NCc1ccccc1COc1ccccc1
63 | 219 to 221 | Cc1cc2cn[nH]c2cc1N
64 | 79 to 81 | C#CCNC(C)=O
65 | 190 to 192 | O=C(O)C1=NN(Cc2ccc(F)cc2)C(=O)CC1
66 | 105 to 115 | ClCc1nc2cc(Cl)ccc2n1Cc1ccccc1
67 | 35 to 37 | BrCCOc1ccc(Oc2ccccc2)cc1
68 | 112 to 114 | O=Cc1ccc(-c2ccccc2[N+](=O)[O-])s1
69 | 134 to 136 | Nc1cc(N2CCCS2(=O)=O)ccc1O
70 | 161 to 163 | CC(=O)c1ccc(S(=O)(=O)N2CCOCC2)cc1
71 | 112 to 114 | Cn1cncc1CO
72 | 199 to 201 | CN(C)c1ccc(C(=O)O)c(F)c1

Row | melting point [°C] | SMILES
73 | 72 to 74 | N#Cc1ccccc1Oc1ccccn1
74 | 84 to 86 | O=C(O)C1CCCc2ccccc21 (stereo not drawn)
75 | 43 to 45 | CC(C)CCNC(N)=O
76 | 86 to 88 | COc1ccccc1-c1nnc(CCl)o1
77 | 143 to 145 | N#Cc1ccc(NC(=O)OCC(F)(F)F)cc1
78 | 161 to 163 | COc1ccc(-c2nn(-c3ccccc3)cc2CC(=O)O)cc1
79 | 50 to 52 | O=C(O)CCc1ccc(Cl)s1
80 | 191 to 193 | O=C(O)c1cccnc1Oc1ccc(Cl)cc1Cl
81 | 266 to 268 | Cc1cc(-c2cc(C(=O)O)c3c(C)noc3n2)c(C)o1
82 | 189 to 191 | O=Cc1ccc(OCCn2cc(C(=O)O)nn2)c(Cl)c1
83 | 170 to 172 | NS(=O)(=O)c1ccc(Br)cn1
84 | 278 to 280 | O=C(O)c1ccc2nnc(C(F)F)n2c1
85 | 77 to 79 | CNS(=O)(=O)c1ccc(Br)c(C)c1
86 | 91 to 93 | CC(CC(=N)N)NC(=O)OC(C)(C)C (stereo not drawn)
87 | 57 to 59 | Cc1cnc2ccccc2c1Cl
88 | 128 to 130 | COC(=O)c1ccc(NC(=O)CCCCl)cc1
89 | 127 to 129 | Cc1cc(N)c(N)cc1C
90 | 225 to 227 | COC(=O)c1c(S)nc(=O)[nH]c1C
91 | 148 to 150 | CC(C)(C)OC(=O)N1CCN(S(=O)(=O)Cl)CC1
92 | 91 to 93 | CC(C)(C(=O)O)c1cccc(C#N)c1
93 | 159 to 161 | COC(=O)c1ccc(C(=O)c2cc[nH]c2)cc1
94 | 159 to 161 | Clc1ccc(NCCc2ccccc2)nn1
95 | 123 to 125 | Cc1cc(C(=O)N2CCCCC2C)ccc1N (stereo not drawn)
96 | 114 to 116 | CCOc1ccc(C(CN)c2c[nH]c3ccccc23)cc1OC (stereo not drawn)

Row | melting point [°C] | SMILES
97 | 43 to 45 | Cc1cc(C=O)c(C)n1-c1nccs1
98 | 278 to 280 | O=C(O)c1cnc2c(c1)c(=O)[nH]c(=O)n2Cc1ccccc1
99 | 119 to 121 | Cc1nn(CC(F)(F)F)cc1C(=O)O
100 | 70 to 72 | COc1ncnc(Cl)c1N
101 | 70 to 72 | NCc1nnc2n1CCCCC2
102 | 329 to 331 | CCOC(=O)c1cnc2cc(Br)ccc2c1O
103 | 125 to 127 | CC(=O)c1csc(-c2csc(C)n2)c1
104 | 112 to 114 | ClCc1nc(Cl)c2cnn(-c3ccccc3)c2n1
105 | 114 to 116 | CCOC(=O)c1sc2nc(CN(C)C)nc(Cl)c2c1C
106 | 211 to 213 | N#Cc1ccccc1COc1ccc(C(=O)O)cc1
107 | 140 to 142 | Cc1ccc(CNC(=O)c2ccccc2N)cc1
108 | 322 to 324 | Cc1c(C(=O)O)sc2nc(CCl)[nH]c(=O)c12
109 | 201 to 203 | O=C(O)c1ccccc1CN1C(=O)CNC1=O
110 | 109 to 111 | CCOC(=O)c1nc(NCCc2ccccc2)sc1C
111 | 143 to 145 | Clc1nc(-c2cccs2)nc2scc(-c3ccccc3)c12
112 | 161 to 163 | NNc1nc(Cl)c(Cl)cc1Cl
113 | 169 to 171 | COc1c(Cl)ccnc1O
114 | 76 to 78 | O=[N+]([O-])c1cnc(Br)c(Br)c1
115 | 114 to 118 | O=C(O)C1Cc2cc(Cl)ccc2O1 (stereo not drawn)
116 | 163 to 165 | COC(=O)c1sc(N)c(C(=O)OC)c1CBr
117 | 114 to 116 | O=[N+]([O-])c1ccc(Cl)c(S(=O)(=O)N2CCCC2)c1
118 | 182 to 184 | O=C(CO)Nc1cccc([N+](=O)[O-])c1
119 | 190 to 192 | O=C1COc2ccc(C(=O)CBr)cc2N1
120 | 246 to 248 | CS(=O)(=O)c1ccc(S(N)(=O)=O)cc1

Row | melting point [°C] | SMILES
121 | 129 to 131 | C=CC(=O)Nc1ccc(OCC)c(CO)c1
122 | 123 to 125 | NC(=S)NCC1CCC1
123 | 104 to 106 | CCCCCCCC(=O)NCC(=O)O
124 | 124 to 126 | CCN(CC)S(=O)(=O)c1ccc(N)c(N)c1
125 | 94 to 96 | CNC(=O)COc1cccc(Br)c1
126 | 239 to 241 | CC(C)NC(=O)Nc1cccc(C(=O)O)c1
127 | 149 to 151 | CC(NS(=O)(=O)c1cccc(C(=O)O)c1)c1ccccc1 (stereo not drawn)
128 | 269 to 271 | COc1ccc2c(-c3cccnc3)cc(S)nc2c1
129 | 275 to 277 | CC(=O)Oc1ccc(-c2ccc(C(=O)O)cc2)cc1
130 | 113 to 115 | CC(Cl)C(=O)Nc1ncc(Cl)cc1Cl (stereo not drawn)
131 | 109 to 111 | O=C(c1cccnc1)c1csc2ccccc12
132 | 194 to 196 | CC(C)N(C)S(=O)(=O)c1ccc(F)c(C(=O)O)c1
133 | 44 to 46 | COC(C)(C(=O)O)c1ccccc1 (stereo not drawn)
134 | 46 to 48 | COc1cccc(-c2ccc(CN)cc2)c1
135 | 98 to 101 | Cc1cc2cc(F)ccc2[nH]1
136 | 42 to 44 | Cc1nc(-c2ccc(Cl)cc2)sc1C(C)N (stereo not drawn)
137 | 102 to 104 | O=C(O)C1(Cc2ccccc2)CC1
138 | 237 to 239 | Nc1ccc2c(c1)C(=O)NC2
139 | 75 to 77 | CC(NC(=O)CCl)c1ccccc1 (stereo not drawn)
140 | 123 to 125 | CC(C(=O)O)N1C(=O)C2CC=CCC2C1=O (stereo not drawn)
141 | 83 to 85 | NCc1ccccc1CN1CCC(O)CC1
142 | 156 to 158 | Nc1cccc(N2C(=O)CNC2=O)c1

Row | SMILES | melting point [°C]
143 | O=c1[nH]c(CN2CCNCC2)nc2ccccc12 | 167 to 169
